Molecules are shown by their SMILES.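 Grown in 96-well plates, cells were treated for 48 hours with each compound at five concentrations. Insufficient inhibition: endpoint recorded as highest concentration tested. GI50 marks 50% less growth. TGI denotes the concentration required for complete inhibition of growth.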

Consider 15 molecules from PubChem BioAssay (NCI).

Among the test systems are HCT-15 colon; HL-60(TB) leukemia; LOX IMVI melanoma; MOLT-4 leukemia; OVCAR-3 ovarian; OVCAR-5 ovarian; SF-295 CNS; SK-MEL-28 melanoma; SK-MEL-5 melanoma; U251 CNS.
What all share (assay): NCI anticancer screen, dose series, 48 h

Turning to `CCCCCCCCCCCC(=O)[O][Sn]([CH2]CCC)([CH2]CCC)[CH2]CCC`, the GI50 in the experiment on HCT-15 colon was 45.6 nM; with HL-60(TB) leukemia, 56.7 nM; in the experiment on LOX IMVI melanoma, 25.9 nM; with MOLT-4 leukemia it was 43.6 nM; in the experiment on OVCAR-3 ovarian, 51.8 nM; with OVCAR-5 ovarian, 54.8 nM. Also, the GI50 in the experiment with SF-295 CNS is 67.9 nM; in the experiment on SK-MEL-28 melanoma it was 64.9 nM; with SK-MEL-5 melanoma, 30.2 nM; in the experiment with U251 CNS, 44.2 nM. Besides, the TGI with HCT-15 colon was 168 nM; in the experiment with HL-60(TB) leukemia it was 155 nM; in the experiment with LOX IMVI melanoma, 71.2 nM; in the experiment with MOLT-4 leukemia it was 732 nM; with OVCAR-3 ovarian, 125 nM; with OVCAR-5 ovarian it was 164 nM. The TGI in the experiment on SF-295 CNS was 177 nM; in the experiment with SK-MEL-28 melanoma, 179 nM; in the experiment with SK-MEL-5 melanoma, 78.6 nM; with U251 CNS it was 125 nM.
`CCOc1ccc(-n2cc(-c3ccc(N(C)C)cc3)[n+]3c2CCCCC3)cc1`: the GI50 in the experiment with HCT-15 colon is 10100 nM; in the experiment on HL-60(TB) leukemia it was 164 nM; in the experiment on LOX IMVI melanoma, 359 nM; with MOLT-4 leukemia, 1000 nM; in the experiment on OVCAR-3 ovarian, 377 nM; with OVCAR-5 ovarian, 3740 nM. Besides, the GI50 in the experiment with SF-295 CNS was 618 nM; in the experiment on SK-MEL-28 melanoma it was 841 nM; in the experiment on SK-MEL-5 melanoma it was 95.8 nM; in the experiment on U251 CNS, 312 nM. Besides, the TGI with HCT-15 colon was above 100000 nM; in the experiment on HL-60(TB) leukemia, 1530 nM; with LOX IMVI melanoma, above 65600 nM; with MOLT-4 leukemia it was 26500 nM; with OVCAR-3 ovarian, 60200 nM; in the experiment with OVCAR-5 ovarian it was above 100000 nM. Further, the TGI is 5430 nM in the experiment with SF-295 CNS, above 81900 nM in the experiment with SK-MEL-28 melanoma, 475 nM with SK-MEL-5 melanoma and above 100000 nM with U251 CNS.
For `c1ccc2c(c1)-c1nc3ccccc3cc1C2N1CCOCC1` (stereo not drawn), the TGI with HCT-15 colon, with HL-60(TB) leukemia, in the experiment on LOX IMVI melanoma, in the experiment on MOLT-4 leukemia, in the experiment with OVCAR-3 ovarian and in the experiment with OVCAR-5 ovarian was above 100000 nM throughout. Further, the TGI with SF-295 CNS, in the experiment with SK-MEL-28 melanoma, in the experiment on SK-MEL-5 melanoma and with U251 CNS was above 100000 nM in each case.
Take `Nc1ncnc2c1c(-c1ccc(Oc3ccccc3)cc1)nn2C[C@H]1SSC[C@H]1O`: the GI50 in the experiment on HCT-15 colon was 201 nM; in the experiment with HL-60(TB) leukemia, 242 nM; with LOX IMVI melanoma, 70.3 nM; in the experiment with MOLT-4 leukemia, 18.4 nM; with OVCAR-3 ovarian it was 188 nM; in the experiment with OVCAR-5 ovarian, 2200 nM. In addition, the GI50 in the experiment on SF-295 CNS is 678 nM; with SK-MEL-28 melanoma, 25.8 nM; in the experiment with SK-MEL-5 melanoma it was 159 nM; in the experiment on U251 CNS it was 1200 nM. Besides, the TGI was 2290 nM with HCT-15 colon; 660 nM in the experiment with HL-60(TB) leukemia; 523 nM with LOX IMVI melanoma; 49.2 nM in the experiment on MOLT-4 leukemia; 421 nM with OVCAR-3 ovarian; above 31300 nM in the experiment on OVCAR-5 ovarian. In addition, the TGI with SF-295 CNS came out at 3190 nM; in the experiment on SK-MEL-28 melanoma it was 79.3 nM; in the experiment on SK-MEL-5 melanoma it was 372 nM; in the experiment with U251 CNS, 4270 nM.
Turning to `COc1ccc(-n2cc(-c3ccc(F)cc3)[nH]c2=O)cc1OC`, the GI50 in the experiment on HCT-15 colon, in the experiment with HL-60(TB) leukemia, in the experiment on LOX IMVI melanoma, in the experiment on MOLT-4 leukemia, with OVCAR-3 ovarian and with OVCAR-5 ovarian was above 100000 nM in each case. Further, the GI50 with SF-295 CNS, in the experiment with SK-MEL-28 melanoma, with SK-MEL-5 melanoma and in the experiment on U251 CNS was above 100000 nM throughout. The TGI with HCT-15 colon, in the experiment with HL-60(TB) leukemia, in the experiment with LOX IMVI melanoma, in the experiment with MOLT-4 leukemia, in the experiment on OVCAR-3 ovarian and in the experiment on OVCAR-5 ovarian was above 100000 nM throughout. Besides, the TGI in the experiment with SF-295 CNS, with SK-MEL-28 melanoma, in the experiment with SK-MEL-5 melanoma and with U251 CNS was above 100000 nM each time.
As for `O=CN/C=C\c1cc(O)ccc1O`, the TGI in the experiment with HCT-15 colon is 23700 nM; in the experiment with HL-60(TB) leukemia, 47800 nM; in the experiment with LOX IMVI melanoma it was 22700 nM; in the experiment with MOLT-4 leukemia it was 70600 nM; in the experiment with OVCAR-3 ovarian, 25000 nM; with OVCAR-5 ovarian, above 100000 nM. Also, the TGI in the experiment on SF-295 CNS was above 100000 nM; in the experiment on SK-MEL-28 melanoma, above 64900 nM; in the experiment on SK-MEL-5 melanoma, above 50900 nM; with U251 CNS, above 81000 nM.
As to `Cn1c(=O)ccc2cc(C(=O)c3ccccc3)ccc21`, the TGI in the experiment on HCT-15 colon, in the experiment on HL-60(TB) leukemia, in the experiment with LOX IMVI melanoma, in the experiment with MOLT-4 leukemia, in the experiment on OVCAR-3 ovarian and in the experiment with OVCAR-5 ovarian was above 100000 nM in each case. The TGI was above 100000 nM with SF-295 CNS, above 100000 nM with SK-MEL-28 melanoma, 55700 nM in the experiment with SK-MEL-5 melanoma and above 100000 nM in the experiment on U251 CNS.
On to `Cn1cc(C2=C(c3cn(CCCN/C(N)=N\[N+](=O)[O-])c4ccccc34)C(=O)NC2=O)c2ccccc21`, for which the GI50 was 19800 nM in the experiment on HCT-15 colon; 1230 nM in the experiment on HL-60(TB) leukemia; 949 nM in the experiment with LOX IMVI melanoma; 2250 nM with MOLT-4 leukemia; 1170 nM with OVCAR-3 ovarian; 11400 nM with OVCAR-5 ovarian. Also, the GI50 with SF-295 CNS is 3740 nM; in the experiment on SK-MEL-28 melanoma, 3380 nM; in the experiment on SK-MEL-5 melanoma it was 2330 nM; with U251 CNS, 2050 nM. The TGI is above 25000 nM in the experiment with HCT-15 colon; 7660 nM in the experiment on HL-60(TB) leukemia; 21600 nM in the experiment with LOX IMVI melanoma; above 16400 nM with MOLT-4 leukemia; 11400 nM with OVCAR-3 ovarian; above 25000 nM in the experiment with OVCAR-5 ovarian. Besides, the TGI in the experiment on SF-295 CNS is above 23600 nM; in the experiment with SK-MEL-28 melanoma it was 18500 nM; in the experiment with SK-MEL-5 melanoma it was 7370 nM; in the experiment with U251 CNS, 15400 nM.
Regarding `Cc1cccc(C)c1NC(=O)/C(CC(=O)CC(c1ccccc1)c1c(O)c2ccccc2oc1=O)=N/O` (stereo not drawn), the TGI in the experiment on HCT-15 colon, in the experiment with HL-60(TB) leukemia, in the experiment with LOX IMVI melanoma, in the experiment with MOLT-4 leukemia, in the experiment on OVCAR-3 ovarian and with OVCAR-5 ovarian was above 100000 nM in each case. Also, the TGI in the experiment with SF-295 CNS, with SK-MEL-28 melanoma, with SK-MEL-5 melanoma and in the experiment with U251 CNS was above 100000 nM in each case.
Consider `CN=C(NC#N)NCc1ccccc1`, for which the TGI with HCT-15 colon, in the experiment on HL-60(TB) leukemia, in the experiment on LOX IMVI melanoma, in the experiment on MOLT-4 leukemia, with OVCAR-3 ovarian and in the experiment with OVCAR-5 ovarian was above 100000 nM each time. Also, the TGI in the experiment on SF-295 CNS, with SK-MEL-28 melanoma, in the experiment with SK-MEL-5 melanoma and with U251 CNS was above 100000 nM each time.
In the case of `CCC1(O)CC(c2ccccc2)N(C)C(c2ccccc2)C1` (stereo not drawn), the TGI with HCT-15 colon, in the experiment with HL-60(TB) leukemia, with LOX IMVI melanoma, with MOLT-4 leukemia, in the experiment on OVCAR-3 ovarian and in the experiment on OVCAR-5 ovarian was above 100000 nM each time. Besides, the TGI with SF-295 CNS, in the experiment with SK-MEL-28 melanoma, in the experiment with SK-MEL-5 melanoma and in the experiment with U251 CNS was above 100000 nM each time.
As for `O=C1C2Cc3ccccc3CN2C(=O)N1CCN1CCOCC1` (stereo not drawn), the TGI with HCT-15 colon, in the experiment on HL-60(TB) leukemia, in the experiment on LOX IMVI melanoma, in the experiment on MOLT-4 leukemia, with OVCAR-3 ovarian and with OVCAR-5 ovarian was above 100000 nM throughout. Further, the TGI in the experiment on SF-295 CNS, in the experiment on SK-MEL-28 melanoma, in the experiment with SK-MEL-5 melanoma and in the experiment with U251 CNS was above 100000 nM in each case.
`O=C(Nc1ccc(-n2cc(-c3ccncc3)c(-c3ccc(Cl)c(O)c3)n2)cc1)c1ccc(Cl)c(C(F)(F)F)c1`: the GI50 is 444 nM in the experiment on HCT-15 colon; 1190 nM in the experiment with HL-60(TB) leukemia; 344 nM in the experiment with LOX IMVI melanoma; 652 nM in the experiment with MOLT-4 leukemia; 2030 nM with OVCAR-3 ovarian; 5250 nM in the experiment with OVCAR-5 ovarian. In addition, the GI50 was 216 nM in the experiment with SF-295 CNS, 1180 nM with SK-MEL-28 melanoma, 600 nM in the experiment on SK-MEL-5 melanoma and 895 nM with U251 CNS. Moreover, the TGI with HCT-15 colon is 2580 nM; with LOX IMVI melanoma, 1580 nM; in the experiment on MOLT-4 leukemia, above 29300 nM; with OVCAR-3 ovarian, 6240 nM; in the experiment on OVCAR-5 ovarian it was 29400 nM; with SF-295 CNS it was 475 nM. Moreover, the TGI in the experiment on SK-MEL-28 melanoma came out at 3600 nM; in the experiment with SK-MEL-5 melanoma it was 1640 nM; in the experiment on U251 CNS it was 2910 nM.
In the case of `COc1ccc2c(c1)[n+](=O)c(C(=O)C/C(=N\NC(=O)C[N+](C)(C)C)C(=O)Nc1cc(Cl)ccc1Cl)c(C)n2O`, the TGI in the experiment on HCT-15 colon, in the experiment with HL-60(TB) leukemia, with LOX IMVI melanoma, with MOLT-4 leukemia, with OVCAR-3 ovarian and with OVCAR-5 ovarian was above 100000 nM throughout. Also, the TGI in the experiment on SF-295 CNS, in the experiment with SK-MEL-28 melanoma, with SK-MEL-5 melanoma and with U251 CNS was above 100000 nM in each case.
Take `COc1ccc2c(c1)cn1c3ccc(OC)cc3[nH]c(=O)c21`: the GI50 is below 17.7 nM with HCT-15 colon; below 11.3 nM in the experiment with HL-60(TB) leukemia; below 20.6 nM in the experiment on LOX IMVI melanoma; below 18.3 nM in the experiment with MOLT-4 leukemia; below 15.2 nM in the experiment on OVCAR-3 ovarian; below 23.2 nM in the experiment on OVCAR-5 ovarian. For the same molecule, the GI50 with SF-295 CNS was below 16.9 nM; in the experiment on SK-MEL-28 melanoma, below 28.5 nM; in the experiment on SK-MEL-5 melanoma, below 19 nM; in the experiment with U251 CNS it was below 17.2 nM. For the same molecule, the TGI in the experiment with HCT-15 colon was 1110 nM; in the experiment on HL-60(TB) leukemia it was below 21.9 nM; in the experiment on LOX IMVI melanoma it was 1780 nM; in the experiment on MOLT-4 leukemia, 1040 nM; with OVCAR-3 ovarian it was below 24 nM; with OVCAR-5 ovarian, 1810 nM. The results for the TGI with SK-MEL-28 melanoma, in the experiment on SK-MEL-5 melanoma and in the experiment with U251 CNS were 2150 nM, 760 nM and 1250 nM, respectively.
